Data taken from patent USH1209H, “No-carrier-added (18F)-N-methylspiroperidol” (The United States of America as represented by the United …, priority 1985, dated 1993).

Columns and labels:
[1] = test system: dopamine receptors; assay: PETT baboon studies: striatum and cerebellum radioactivity after i.v. [^18 F]-N-methylspiroperidol, with (-)- or (+)-butaclamol pretreatment; details: for effect of butaclamol pretreatment on striatal distribution of [^18 F]-N-methylspiroperidol: 0.5 mg/kg i.v. pretreatment
Excerpt: (§1) A young adult (12 kg) female baboon (Papio anubis) was anesthesized initially with ketamine and subsequently maintained under halothane/nitrous oxide anesthesia for two PETT studies. […] Pett scans were made continually for 4 hrs from the time of radioisotope injection.

[2] = test system: dopamine receptor; details: cited from earlier work; for prevention of striatal retention of [^18 F]spiroperidol and [^18 F]benperidol: prior administration of butaclamol enantiomer; for retention by the striatum compared with [^18 F]haloperidol: region of high dopamine receptor density
[3] = Baboon plasma analyses (total plasma radioactivity clearance and unchanged radioligand); details: baboon, plasma, plasma radioactivity due to unaltered radioligand, baboon plasma, 10 mins after injection
Excerpt: as §1
Blood was sampled from the femoral artery at initial intervals of 5 secs. Aliquots of plasma were counted to determine the total plasma radioactivity of clearance curves.

[4] = Metabolic stability and uptake in rat brain (striatum, cerebellum); type: in vivo, rat (male BNL R strain); details: rat brain

Structure (SMILES) | effect of butaclamol pretreatment on striatal distribution of [^18 F]-N-methylspiroperidol [1] | prevention of striatal retention of [^18 F]spiroperidol and [^18 F]benperidol [2] | crossing of the blood brain barrier compared with [^18 F]haloperidol ([2]; in vivo) | retention by the striatum compared with [^18 F]haloperidol [2] | also measured
CC(C)(C)C1(O)CCN2CC3c4ccccc4CCc4cccc(c43)C2C1 (single isomer, unassigned; (-)) [(-)-butaclamol, reference compound] | normal distribution of radioligand | not |  |  | 
CC(C)(C)C1(O)CCN2CC3c4ccccc4CCc4cccc(c43)C2C1 (single isomer, unassigned; (+)) [(+)-butaclamol, reference compound] | stereospecific blocking of dopamine receptors in the striatum | prevented |  |  | 
O=C(CCCN1CCC(n2c(=O)[nH]c3ccccc32)CC1)c1ccc([18F])cc1 [[^18 F]benperidol] |  |  | to a lesser extent than [^18 F]haloperidol | retained to a greater degree by the striatum | 
O=C(CCCN1CCC(O)(c2ccc(Cl)cc2)CC1)c1ccc(F)cc1 [haloperidol] |  |  |  |  | brain uptake compared with spiroperidol or benperidol ([2]; in vivo): higher than spiroperidol or benperidol; egress from the brain ([2]; in vivo): rapid egress; nonspecific binding ([2]; in vivo): relatively high nonspecific binding
O=C(CCCN1CCC2(CC1)C(=O)NCN2c1ccccc1)c1ccc([18F])cc1 [[^18 F]spiroperidol] |  |  | to a lesser extent than [^18 F]haloperidol | retained to a greater degree by the striatum | specifically bound component of radioactivity in the striatum (striatum minus cerebellum) ([1]; 4 hrs after injection): still increasing at 4 hrs after injection; uptake into the brain ([2]; baboons): 0.5-1.0 % of the injected dose; clearance from the striatal areas ([2]; up to 8 hrs. after injection): no clearance; remaining at 10 min [3]: 72%; metabolism in the rat brain [4]: very little metabolism
